Source: patent US20190015423A1, “REGULATION OF GENE EXPRESSION BY MODULATING PRIMARY CILIA LENGTH” (THE TRUSTEES OF COLUMBIA UNIVERSITY IN THE CITY OF NEW YORK, priority 2016, published 2019)
Entries after “also recorded” stand apart in the source; their conditions may differ. Where a name gives a salt, the structure may show the parent alone.

Test system: MLO-Y4 osteocytes
Assay: High-throughput drug screening of primary cilia length and incidence
Format: cell-based
Settings: 10 μM, 16 hours; for Average Incidence SD Away / Average Length SD Away: triplicate, normalized to vehicle control, standard deviation away from the population average
Protocol: MLO-Y4 osteocytes were maintained on collagen I-coated dishes in MEMα (Life_Technologies) supplemented with 5% fetal bovine serum (FBS), 5% calf serum (CS), and 1% penicillin/streptomycin (P/S) at 37° C. and 5% CO2. Osteocytes were then seeded onto 384-well collagen-coated plates for 72 hours before fixation. […] These libraries include Tocris, Sigma LOPAC, Selleck Chemical, Prestwick, and Spectrum commercially available compound libraries. All cell seeding and plate handling was performed with the Perkin Elmer cell:explorer workstation.
Cells were fixed in 4% paraformaldehyde and permeabilized with 0.1% Triton-X 100 (Sigma). 10% goat serum (vendor) was used for blocking. Cilia were stained using a monoclonal antibody against acetylated α-tubulin (1:20) from a C3B9 hybridoma cell line, and visualized with A F488 (1:1000, ThermoFisher). Nuclei were visualized with Hoechst. Cells were imaged using a GE INCell 2000 high-throughput imager at 40× magnification. 4 fields of view were taken per well.
Each pair of nuclei and cilia images was first analyzed individually, then the entire population was examined to evaluate each compound's effect on cilia length and incidence. A custom MATLAB script was developed to perform all image analysis. This script first utilizes an enhanced implementation of a watershed transform, which is a segmentation tool which enables detection of similarly shaped overlapping particles in noisy images by the procedural whittling down of pixels found close to the edge of such particles. The augmentation of the algorithm incorporates thresholding for noise removal based on signal intensity and object size, nuclei dilation to exclude non-cellular artifacts, as well as skeletonization of cilia to quantify length. The results of the analysis are number of nuclei, number of cilia, and average cilia length in each image.
Compounds were selected based on deviation from the population mean. Each well was normalized to vehicle control images on each plate, allowing the establishment of a normalized population mean. Hits were chosen based on compounds whose triplicate mean was furthest (based on standard deviation away) from the population mean. […] Compounds were classified based on mechanism of action.
To identify compounds that modulate primary cilia formation a high-throughput platform was developed to automate cell culture, staining, imaging, and analysis, as shown in schematic form in FIG. 18. […] Cells were cultured on 384-well plates, and treated with small molecules with known biologic activity, enabling classification of mechanisms of action. Drug treatment was applied for 16 hours at 10 μM concentration, performed in triplicate, before fixation and immunostaining of primary cilia. Cells were then imaged using the GE INCell 2000 High Content Analyzer, capturing 4 fields of view per well at 40× magnification. Additionally, each plate contains 8 wells of DMSO vehicle control.
A MATLAB script was developed to detect and analyze changes in ciliogenesis. […] A representative exemplary image (FIG. 19A) is cropped to better display features, scale bar represents 30 μm. A custom MATLAB script was used to identify nuclei and cilia for analysis (FIG. 19B). […] Objects are further filtered based on size and signal intensity.
Cilia length and incidence for each field of view were normalized to vehicle control on that individual plate. This allowed development of a normalized population average and standard deviation. […] To control for toxic effects only small molecules with at least 40% viability, based on number of nuclei versus control, were selected as hits. Furthermore, compounds repeated between multiple libraries eliciting the same effect on cilia length or incidence were excluded, such that only one of the repeated compounds was selected as a hit.

Row | Compound | Average Incidence SD Away | Average Length SD Away | classification as hit increasing cilia length in the screen (hit = 1.5 standard deviation above population average, at least 40% viability)
1 | CC(C)OC(=O)C(C)(C)Oc1ccc(C(=O)c2ccc(Cl)cc2)cc1 [Fenofibrate (Tricor Trilipix), Fenofibrate] | 2.95 SD | – | –
2 | COc1ccc2c(c1OC)OC[C@@H](c1ccc(OC)c(OC)c1OC)C2 [DUARTIN DIMETHYL ETHER] | – | 2.07 SD | –
3 | Cc1cc2c(s1)Nc1ccccc1N=C2N1CCN(C)CC1 [Olanzapine (Zyprexa), Olanzapine] | 1.609 SD | – | –
4 | CN(Cc1cnc2nc(N)nc(N)c2n1)c1ccc(C(=O)N[C@@H](CCC(=O)O)C(=O)O)cc1 (racemic) [Amethopterin (RS)] | – | 2.927 SD | –
5 | CCOc1ccc2nc3cc(N)ccc3c(N)c2c1 [Ethacridine lactate monohydrate] | – | 2.114 SD | –
6 | C=C(C)[C@H]1CC=C(C(=O)O)CC1 [PERILLIC ACID (−)] | – | 2.196 SD | –
7 | S=c1nc[nH]c2nc[nH]c12 [MERCAPTOPURINE] | – | 1.722 SD | –
8 | CC(=O)O[C@@H]1C[C@H]2C(C)(C)C(=O)C=C[C@]2(C)[C@H]2CC[C@]3(C)C(=CC(=O)O[C@H]3c3ccoc3)[C@@]21C [DEOXYGEDUNIN] | – | 2.161 SD | –
9 | O=c1c(-c2ccc(O)cc2)coc2cc(O)cc(O)c12 [Genistein] | 1.524 SD | – | –
10 | CC(=O)O[C@H]1C[C@@H](OC(C)=O)C(C)(C)[C@@H]2C[C@@H](OC(C)=O)[C@]3(C)[C@H](CC[C@@]4(C)[C@H](c5ccoc5)OC(=O)[C@H]5O[C@@]534)[C@@]12C [KHIVORIN] | – | 1.723 SD | –
11 | CCCCOc1ccc(CC(=O)NO)cc1 [Bufexamac] | 2.326 SD | 3.676 SD | listed as a hit increasing length; also recorded: listed as hits
12 | O=C([O-])c1ccccc1-c1c2cc(Br)c(=O)cc-2oc2[c]([Hg+])c([O-])c(Br)cc12.[Na+].[Na+].[OH-] [Merbromin] | – | 5.067 SD | –
13 | CCCOc1ccc2nc(NC(=O)OC)[nH]c2c1 [Oxibendazole] | 4.084 SD | – | –
14 | O=C1CN=C(c2cccc(Br)c2)c2oc3ccccc3c2N1 [5-BDBD] | – | 1.92 SD | –
15 | COc1ccccc1OCC(O)CN1CCN(CC(=O)Nc2c(C)cccc2C)CC1 (centres unmarked) [Ranolazine (Ranexa), Ranolazine] | 1.565 SD | – | –
16 | COCCc1ccc(OCC(O)CNC(C)C)cc1 (centres unmarked) [Metoprolol tartrate] | 1.601 SD | – | –
17 | Cc1cc(NC(=O)Nc2ccc(N(C)C)cc2)c2cc(F)cc(F)c2n1 [SB 408124] | – | 2.398 SD | –
18 | NC(=O)NO [Hydroxyurea (Cytodrox), Hydroxyurea] | 1.988 SD | – | –
19 | CCCC(=O)[O-].[Na+] [Sodium butyrate] | 2.3981 SD | – | –
20 | COc1cc(C(C)=O)ccc1OCCCN1CCC(c2noc3cc(F)ccc23)CC1 [Iloperidone (Fanapt), Iloperidone] | 1.775 SD | – | –
21 | O=c1[nH]c(=O)n([C@H]2C[C@H](O)[C@@H](CO)O2)cc1F [Floxuridine] | 1.58 SD | 1.672 SD | –
22 | CN(C)CCOC(c1ccccc1)c1ccccc1 [Diphenhydramine HCl (Benadryl), Diphenhydramine HCl] | 1.928 SD | – | –
23 | c1ccc(-c2[nH]ncc2-c2ccnc3ccccc23)nc1 [LY 364947] | 1.591 SD | – | –
24 | COc1nccc(-c2c(-c3ccc(F)cc3)ncn2C2CCC(O)CC2)n1 (centres unmarked) [SB 239063] | 1.795 SD | 4 SD | –
25 | Nc1nc2nc[nH]c2c(=S)[nH]1 [THIOGUANINE] | – | 1.675 SD | –

Row | Compound | Average Incidence SD Away | Average Length SD Away | classification as hit increasing cilia length in the screen (hit = 1.5 standard deviation above population average, at least 40% viability)
26 | CN1[C@@H]2CC[C@H]1C[C@@H](OC(=O)c1c[nH]c3ccccc13)C2 [Tropisetron] | 1.694 SD | – | –
27 | Cc1cc(/C=C/c2ccc3cc(N(C)C)ccc3[n+]2C)c(C)n1-c1ccccc1 [PYRVINIUM PAMOATE] | – | 2.834 SD | –
28 | COc1cc2c(cc1C(F)(F)F)N(C(=O)Nc1cc(F)cc(-c3cccnc3)c1)CC2 [SB 228357] | – | 2.332 SD | –
29 | Cc1cccc([C@H](C)c2cnc[nH]2)c1C [Dexmedetomidine HCl (Precedex), Dexmedetomidine HCl] | 2.924 SD | – | –
30 | c1ccc(-c2ccc(C(c3ccccc3)n3ccnc3)cc2)cc1 (centres unmarked) [Bifonazole] | 1.664 SD | – | –
31 | CCOC(=O)[C@H](CCc1ccccc1)N[C@H]1CS[C@H](c2cccs2)CN(CC(=O)O)C1=O [Temocapril HCl] | 1.877 SD | – | –
32 | CCc1ccc(CCOc2ccc(CC3SC(=O)NC3=O)cc2)nc1 (centres unmarked) [Pioglitazone hydrochloride (Actos), Pioglitazone hydrochloride] | 2.52 SD | – | –
33 | CN1CCN2c3ncccc3Cc3ccccc3C2C1 (centres unmarked) [Mirtazapine (Remeron Avanza), Mirtazapine] | 1.681 SD | – | –
34 | CC(C[N+](C)(C)C)OC(N)=O (centres unmarked) [Bethanechol chloride] | 1.764 SD | – | –
35 | Cc1nccn1CC1CCc2c(c3ccccc3n2C)C1=O (centres unmarked) [Ondansetron (Zofran), Ondansetron] | 1.506 SD | – | –
36 | C=C[C@H]1C[N@@]2CC[C@H]1C[C@@H]2[C@@H](O)c1ccnc2ccc(OC)cc12 [QUINIDINE GLUCONATE] | – | 1.825 SD | –
37 | COc1c(C)c2c(c(O)c1C/C=C(\C)CCC(=O)OCCN1CCOCC1)C(=O)OC2 [Mycophenolate mofetil (CellCept), Mycophenolate mofetil] | 1.654 SD | 1.579 SD | –
38 | CCn1cc(C(=O)O)c(=O)c2cc(F)c(N3CCN(C)CC3)cc21 [Pefloxacin mesylate] | 1.682 SD | – | –
39 | CC1=NN(c2ccccc2)C(=O)C1 [Edaravone (MCI-186), Edaravone] | 1.537 SD | – | –
40 | CC(C)NCC(O)c1ccc(O)c(O)c1 (centres unmarked) [Isoprenaline hydrochloride] | 1.623 SD | – | –
41 | CCCCc1oc2ccccc2c1C(=O)c1cc(I)c(OCCN(CC)CC)c(I)c1 [Amiodarone HCl] | 3.38 SD | – | –
42 | COc1cc2c(cc1OC)CC(=O)N(CCCN(C)C[C@H]1Cc3cc(OC)c(OC)cc31)CC2 [Ivabradine HCl (Procoralan), Ivabradine HCl] | 1.611 SD | – | –
43 | MONENSIN SODIUM | – | 1.722 SD | –
44 | O=c1[nH]cc(F)c(=O)[nH]1 [5-fluorouracil] | – | 1.775 SD | –
45 | CCN(CC)CCNc1ccc(CO)c2sc3ccccc3c(=O)c12 [HYCANTHONE] | – | 2.896 SD | –
46 | Cc1cc(Cl)ccc1OCCCC(=O)NO [Droxinostat] | 2.26 SD | 2.91 SD | –
47 | O=C1NC(=O)c2c1c1c3ccccc3[nH]c1c1[nH]c3ccccc3c21 [Arcyriaflavin A] | 1.892 SD | – | –
48 | CON [METHOXYAMINE HYDROCHLORIDE] | – | 1.91 SD | –
49 | CCC(C)n1ncn(-c2ccc(N3CCN(c4ccc(OCC5COC(Cn6cncn6)(c6ccc(Cl)cc6Cl)O5)cc4)CC3)cc2)c1=O (centres unmarked) [ITRACONAZOLE] | – | 2.154 SD | –
50 | CC(C)(C)[N+]([O-])=Cc1ccc(S(=O)(=O)[O-])cc1S(=O)(=O)[O-].[Na+].[Na+] [NXY 059] | 1.838 SD | – | –
